Measured values reported in patent US7318939B2 (Vita Green Health Products Co., Ltd., priority 2006, dated 2008).
“And” between values parts separate entries of the source, which are not always exact repeats. Equal values may be shown once. Where a name gives a salt, the structure may show the parent alone.

Tested on: male CD1 mice
Assay: Anti-depressant activity: forced swimming test in mice
Assay type: in vivo
Conditions: 30 mg/kg ip
From the text: A depressed state can be induced in mice by forcing them to swim in a narrow cylinder from which they cannot escape. After an initial period of vigorous activity, the mice adopt a characteristic immobile posture which is readily identifiable.
Fifty-five male CD1 mice weighing 20-25 g at the start of the study were obtained from Charles River Laboratories Espafia (Barcelona, Spain). These mice underwent a prior acclimatization period of 6 days before the start of the experimental work, during which they underwent a veterinary examination in order to assure their good health.
The mice were allotted at random to five groups, each consisting of ten animals. The rest of the animals (one per group) were kept as reserve (these animals are not taken into account in the final results). The experimental design is described in the Table 7 below.
The mice began a fasting period of approximately 6 hours before starting the treatments. At the beginning of the test, the corresponding treatments were administrated by the assigned route at a volume of 10 mL/kg. The test item was administrated at three dose levels of 100, 200 and 300 mg/kg by oral route (gastric gavage or po). The reference item was administrated at the dose level of 30 mg/kg by intraperitoneal route or ip. The Control group only received the vehicle (water for injection) orally (po) by gastric gavage.
Six minutes after the administration of the treatments, each mouse was dropped into the cylinder containing water (forcing it to swim) and left there for 6 minutes, the testing time. The time of immobility of the animal was recorded. A mouse was considered immobile when it ceased struggling and remained floating motionless in the water making only those movements necessary to keep its head above water. […] Finally, once the test was over, the animals were sacrificed by cervical dislocation.

Structure (SMILES): CN(C)CCCN1c2ccccc2CCc2ccccc21 [Imipramine HCl, Imipramine hydrochloride]
- % decrease versus Control (time of immobility): 56.2%
- Time of immobility (s) individual values (animal no. 1-10, hydrochloride): 90 s and 140 s and 64 s and 51 s and 3 s and 91 s and 37 s
- Time of immobility (s), mean (last 4 min of 6 min test, Mean ± SEM, n = 10, hydrochloride): 80.8 ± 13.14 s and 80.8 s
